Data from patent publication US20240050434A1, “HORMAD1 THERAPEUTICS” (Royal Cancer Hospital, priority 2020, published 2024).
Entries after “also recorded” stand apart in the source; their conditions may differ.

Assays:
[1] = tested on: HORMAD1 positive organoid KCL625; assay: HORMAD1 positive organoid KCL625 viability by cell titer glo; format: cell-based; details: indicated doses, 10 days
Method: Organoids were treated with the indicated doses of drug for 10 days and cell viability assessed by cell titer glo. Data is presented as mean and standard deviation of triplicate wells;

[2] = tested on: RPE1 cells expressing a doxycycline-inducible HORMAD1 expression construct; assay: Mitotic slippage by time-lapse microscopy in nocodazole-arrested RPE1 cells; format: cell-based; details: 300 nM nocodazole arrest, then 100-200 nM reversine, 50 nM BOS172722 or AZD1152-HQPA
Method: A. Diagram of experimental outline. Cells were exposed to doxycycline for 3 days, arrested in mitosis using 300 nM nocodazole or 100 nM Paclitaxel. Mitotic cells were filmed every 4 minutes for 1200 minutes, and the time cells remained arrested in mitosis before exiting via mitotic slippage was assessed. […] RPE1 cells expressing a doxycycline-inducible HORMAD1 cDNA expression construct were exposed to doxycycline or vehicle (H2O) for three days at which point cells were exposed to 300 nM nocodazole and filmed every 4 minutes using time-lapse microscopy. The time individual cells remained arrested in mitosis was quantified and presented as the % of cells arrested in mitosis at each time point. Data reflects a total of 125 cells from 3 biological repeats and was analysed using Mantel-Cox test. C. […] The time individual cells remained arrested in mitosis was quantified and presented as the % of cells arrested in mitosis at each time point. Data reflects a total of 125 cells from 3 biological repeats and was analysed using Mantel-Cox test. […] H1299 cells expressing two individual, doxycycline-inducible, shRNA particles targeting HORMAD1 as well as a non-targeting control were grown for three days in the presence of doxycycline at which point cell lysates were generated and analysed by SDS-PAGE and western blotting using anti-HORMAD1 and anti-β-ACTIN antibodies. […] The time individual cells remained arrested in mitosis was quantified and presented as the % of cells arrested in mitosis at each time point. Data reflects a total of 90 cells from 3 biological repeats and was analysed using Mantel-Cox test with Bonferonni correction. […] Mitotic cells were filmed every 2 minutes for 400 minutes, and the time taken before cells exited mitosis via mitotic slippage was assessed. […] The time individual cells remained arrested in mitosis was quantified and presented as the % of cells arrested in mitosis at each time point. […] The time individual cells remained arrested in mitosis was quantified and presented as the % of cells arrested in mitosis at each time point. […]

AURORA B kinase = AURORA B kinase (Homo sapiens, UniProt Q96GD4); details: competitive ATP inhibition; Mortlock et al., 2007; cited from earlier work
[3] = tested on: RPE1 cells expressing a doxycycline-inducible HORMAD1 construct; assay: Cell viability by cell titre glo in RPE1 cells with doxycycline-inducible HORMAD1; format: cell-based
Method: RPE1 cells expressing a doxycycline-inducible HORMAD1 construct were treated with doxycycline or vehicle. […] Six days post HORMAD1 induction and 5 days post drug, cell viability was estimated using cell titre glo reagent. Surviving fractions were calculated (normalised to vehicle treated cells).
RPE1 and SUM159 cells expressing a doxycycline-inducible HORMAD1 construct were treated with doxycycline or vehicle. […] Surviving fractions were calculated (normalised to vehicle treated cells). (FIGS. 7a, b and 14c and d). Data from 3 replicas was analysed using 2-way ANOVA. 5 days post drugging, cell viability was estimated using cell titre glo reagent. Surviving fractions were calculated (normalised to vehicle treated cells). Data from 4 replicas was analysed using 2-way ANOVA.
RPE1 cells expressing a doxycycline-inducible HORMAD1 construct were treated with doxycycline or vehicle. […] 5 days post drugging, cell viability was estimated using cell titre glo reagent. Surviving fractions were calculated (normalised to vehicle treated cells).
RPE1 cells expressing a doxycycline-inducible HORMAD1 construct were treated with doxycycline or vehicle in order to induce HORMAD1 expression. […] Using cell titre glo as a measure of cell viability, surviving fractions were calculated (normalised to eribulin alone).
RPE1 cells expressing a doxycycline-inducible HORMAD1 construct were treated with doxycycline or vehicle. […] Using cell titre glo as a measure of cell viability, surviving fractions were calculated (normalised to olaparib alone).

[4] = tested on: MDA-157, MDA-468, MDA436 TNBC cell-lines and MCF10A, MTSV1 non-transformed breast cell-lines; assay: SRB viability in HORMAD1-positive TNBC cell-lines versus non-transformed breast cell-lines; format: cell-based; details: increasing doses, 10-14 days post drugging
Method: To confirm that endogenous HORMAD1 expression in cancer cells (as opposed to transgene-driven HORMAD1 expression) also causes BUB1 inhibitor sensitivity, increasing doses of BUB1 inhibitor was added to 3 HORMAD1-positive triple-negative breast cancer cell-lines (TNBC) and 2 HORMAD1-negative non-transformed breast cell-lines.
Three HORMAD1 positive TNBC cell-lines (MDA-157, MDA-468, MDA436) and two non-transformed breast cell-lines (MCF10A and MTSV1) were treated with increasing doses of BUB1 inhibitor BAY-1816032. 10-14 days post drugging, cell viability was estimated by staining cells with SRB and measuring absorbance. Surviving fractions were calculated (normalised to vehicle treated cells). Data is from 3 replicas, analysed using 2-way ANOVA.

[5] = tested on: TP53 null MCF10A cells expressing a doxycycline-inducible HORMAD1 construct (3D spheroids); assay: 3D spheroid viability (cell titre glo) in TP53 null MCF10A cells with inducible HORMAD1; format: cell-based; details: increasing doses, 14 days post drugging
Method: TP53 null MCF10A cells expressing a doxycycline-inducible HORMAD1 construct were treated with doxycycline or vehicle. Cells were grown in 3D spheroid cultures. Following doxycycline induction, increasing doses of BUB1 inhibitor BAY-1816032 was added to the cells. 14 days post drugging, cell viability was estimated using cell titre glo reagent. Surviving fractions were calculated (normalised to vehicle treated cells). Data is from 3 replicas, analysed using 2-way ANOVA.

Chain of AURORA B kinase (Q96GD4 whole entry): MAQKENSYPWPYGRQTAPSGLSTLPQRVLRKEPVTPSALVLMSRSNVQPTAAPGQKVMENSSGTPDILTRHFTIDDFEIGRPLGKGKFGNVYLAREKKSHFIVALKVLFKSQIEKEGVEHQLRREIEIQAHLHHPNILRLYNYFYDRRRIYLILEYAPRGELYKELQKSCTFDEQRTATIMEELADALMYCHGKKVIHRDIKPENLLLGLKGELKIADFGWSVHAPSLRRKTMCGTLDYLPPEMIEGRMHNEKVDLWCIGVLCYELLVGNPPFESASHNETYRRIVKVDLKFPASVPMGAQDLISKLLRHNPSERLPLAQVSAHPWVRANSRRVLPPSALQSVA

SMILES | sensitivity (surviving fraction versus DMSO) of organoid KCL625 [1] | mitotic slippage / mitotic exit in HORMAD1 induced RPE1 cells [2] | inhibition of AURORA B kinase activity (AURORA B kinase) | growth inhibition (surviving fraction) of HORMAD1 expressing versus HORMAD1-negative RPE1 cells, with eribulin ([3]; increasing doses alongside 0.4 nm eribulin, normalised to eribulin alone) | growth inhibition (surviving fraction) of HORMAD1 expressing versus HORMAD1-negative RPE1 cells, with olaparib ([3]; increasing doses alongside 0.47 μm olaparib, normalised to olaparib alone) | growth inhibition (surviving fraction) of HORMAD1 expressing versus HORMAD1-negative RPE1 cells ([3]; increasing doses, 5 days post drug, cell titre glo, normalised to vehicle) | surviving fraction, HORMAD1-positive TNBC cell-lines compared with HORMAD1-negative non-transformed cell-lines [4] | growth inhibition of HORMAD1 expressing versus HORMAD1-negative spheroids [5]
CCN(CCO)CCCOc1ccc2c(Nc3cc(CC(=O)Nc4cccc(F)c4)[nH]n3)ncnc2c1 [AZD1152-HQPA] | highly sensitive; also recorded: high sensitivity | Very similar results | potently inhibits | – | – | – | – | –
COc1cnccc1Nc1nc(-c2nn(Cc3c(F)cc(OCCO)cc3F)c3ccccc23)ncc1OC [BAY-1816032] | – | – | – | more effectively inhibited | more effectively inhibited | more effectively inhibited | significant differences | more effectively inhibited
